From publication PMC12281424, “A Rac-specific competitive inhibitor of guanine nucleotide binding reduces metastasis in triple-negative breast cancer” (Cell Reports Medicine, 2025)

How the values were obtained:
[1] = biological target: cKit(D816V)(h) (Homo sapiens, UniProt P10721, D816V); assay: Kinase Profiler; format: biochemical
Description: (§1) Blood cell counts, kinase profiler, safety screen, bacterial cytotoxicity, Ames, micronucleus assays were performed by the company Eurofins (France). The kinase profiler was performed by the company Eurofins (Discovery, Panlab and Cerep).

[2] = biological target: Adrenergic β2 (Homo sapiens, UniProt P07550); assay: Safety screen; format: binding
Description: as §1

[3] = biological target: TrkB(h) (Homo sapiens, UniProt Q16620); assay: Kinase Profiler; format: biochemical
Chain of TrkB(h) (Q16620 32-822): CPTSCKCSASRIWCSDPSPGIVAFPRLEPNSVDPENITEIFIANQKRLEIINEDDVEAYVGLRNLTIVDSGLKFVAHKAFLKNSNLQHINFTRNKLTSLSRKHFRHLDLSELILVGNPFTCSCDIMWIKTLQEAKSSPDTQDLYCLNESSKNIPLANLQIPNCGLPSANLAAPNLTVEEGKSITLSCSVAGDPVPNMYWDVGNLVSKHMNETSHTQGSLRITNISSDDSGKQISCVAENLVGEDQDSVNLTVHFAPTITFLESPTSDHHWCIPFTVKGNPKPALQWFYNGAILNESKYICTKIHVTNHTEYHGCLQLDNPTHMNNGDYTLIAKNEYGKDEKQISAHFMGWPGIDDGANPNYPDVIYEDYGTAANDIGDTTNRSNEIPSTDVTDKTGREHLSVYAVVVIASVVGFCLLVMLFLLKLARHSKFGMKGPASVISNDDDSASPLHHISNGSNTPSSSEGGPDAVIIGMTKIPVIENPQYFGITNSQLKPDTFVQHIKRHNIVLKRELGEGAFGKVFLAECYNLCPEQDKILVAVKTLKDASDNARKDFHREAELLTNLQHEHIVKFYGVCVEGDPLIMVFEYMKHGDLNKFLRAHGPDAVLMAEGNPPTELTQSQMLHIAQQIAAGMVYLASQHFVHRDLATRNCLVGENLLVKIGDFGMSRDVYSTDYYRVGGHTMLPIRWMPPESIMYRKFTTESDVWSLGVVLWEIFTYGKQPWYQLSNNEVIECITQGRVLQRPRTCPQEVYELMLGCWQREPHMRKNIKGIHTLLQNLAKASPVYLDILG
Description: (§2) The kinase profiler was performed by the company Eurofins (Discovery, Panlab and Cerep).

[4] = biological target: MEK2(h) (Homo sapiens, UniProt P36507); assay: Kinase Profiler; format: biochemical
Description: as §2

[5] = biological target: EphA4(h) (Homo sapiens, UniProt P54764); assay: Kinase Profiler; format: biochemical
Description: as §1

[6] = biological target: PI3K (p110a/p85a)(m) (Mus musculus, UniProt P42337); assay: Kinase Profiler; format: biochemical
Chain of PI3K (p110a/p85a)(m) (P42337 whole entry): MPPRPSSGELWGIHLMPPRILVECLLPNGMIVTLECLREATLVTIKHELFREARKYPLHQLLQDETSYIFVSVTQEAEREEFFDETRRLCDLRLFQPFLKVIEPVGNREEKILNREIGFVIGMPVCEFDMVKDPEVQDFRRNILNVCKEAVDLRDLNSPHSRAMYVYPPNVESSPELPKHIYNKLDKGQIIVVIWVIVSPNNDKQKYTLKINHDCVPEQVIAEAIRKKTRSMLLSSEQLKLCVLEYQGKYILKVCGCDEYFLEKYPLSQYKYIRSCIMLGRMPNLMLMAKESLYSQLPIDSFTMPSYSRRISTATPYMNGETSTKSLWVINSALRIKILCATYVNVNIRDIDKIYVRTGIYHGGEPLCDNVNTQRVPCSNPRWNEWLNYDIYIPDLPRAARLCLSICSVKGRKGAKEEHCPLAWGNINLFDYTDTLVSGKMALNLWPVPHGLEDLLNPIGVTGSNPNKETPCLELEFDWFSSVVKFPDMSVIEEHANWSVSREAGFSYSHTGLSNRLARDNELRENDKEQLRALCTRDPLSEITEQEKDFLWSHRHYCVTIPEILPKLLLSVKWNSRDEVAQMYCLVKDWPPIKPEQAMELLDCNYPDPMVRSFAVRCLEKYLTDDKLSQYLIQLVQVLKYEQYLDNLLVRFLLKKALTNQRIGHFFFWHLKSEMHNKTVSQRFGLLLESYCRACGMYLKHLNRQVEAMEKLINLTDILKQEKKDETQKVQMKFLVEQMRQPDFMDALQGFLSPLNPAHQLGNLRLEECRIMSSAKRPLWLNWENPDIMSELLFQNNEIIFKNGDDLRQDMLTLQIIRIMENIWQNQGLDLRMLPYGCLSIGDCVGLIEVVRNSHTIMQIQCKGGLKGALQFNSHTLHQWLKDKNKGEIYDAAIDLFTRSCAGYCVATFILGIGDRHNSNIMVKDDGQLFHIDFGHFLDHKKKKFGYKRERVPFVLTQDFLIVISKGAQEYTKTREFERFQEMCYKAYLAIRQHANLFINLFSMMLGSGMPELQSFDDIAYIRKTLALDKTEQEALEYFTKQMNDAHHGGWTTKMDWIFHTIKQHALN
Chain of PI3K (p110a/p85a)(m) (P26450 2-724 partner): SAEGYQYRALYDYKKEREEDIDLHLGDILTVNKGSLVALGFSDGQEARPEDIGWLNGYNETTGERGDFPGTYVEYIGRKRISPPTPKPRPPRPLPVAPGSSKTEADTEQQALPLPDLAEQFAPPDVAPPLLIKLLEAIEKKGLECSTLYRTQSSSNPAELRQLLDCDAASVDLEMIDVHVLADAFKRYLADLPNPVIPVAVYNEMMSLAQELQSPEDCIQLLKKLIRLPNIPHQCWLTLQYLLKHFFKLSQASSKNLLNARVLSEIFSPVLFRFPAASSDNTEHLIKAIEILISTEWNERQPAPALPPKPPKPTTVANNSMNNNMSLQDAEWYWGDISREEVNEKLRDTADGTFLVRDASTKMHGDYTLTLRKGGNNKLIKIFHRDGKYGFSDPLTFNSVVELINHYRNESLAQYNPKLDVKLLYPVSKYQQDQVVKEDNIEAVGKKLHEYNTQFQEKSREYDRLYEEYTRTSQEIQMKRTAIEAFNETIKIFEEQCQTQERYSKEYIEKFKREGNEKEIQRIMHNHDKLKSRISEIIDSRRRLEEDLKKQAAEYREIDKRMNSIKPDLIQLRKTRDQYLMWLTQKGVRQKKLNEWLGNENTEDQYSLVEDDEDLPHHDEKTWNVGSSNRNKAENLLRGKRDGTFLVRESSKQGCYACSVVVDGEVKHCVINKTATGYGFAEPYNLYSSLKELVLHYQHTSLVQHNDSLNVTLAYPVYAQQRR
Description: as §1

[7] = biological target: CDK5/p35(h) (Homo sapiens, UniProt Q00535); assay: Kinase Profiler; format: biochemical
Description: as §1

[8] = biological target: OSR1(h) (Homo sapiens, UniProt O95747); assay: Kinase Profiler; format: biochemical
Chain of OSR1(h) (O95747 whole entry): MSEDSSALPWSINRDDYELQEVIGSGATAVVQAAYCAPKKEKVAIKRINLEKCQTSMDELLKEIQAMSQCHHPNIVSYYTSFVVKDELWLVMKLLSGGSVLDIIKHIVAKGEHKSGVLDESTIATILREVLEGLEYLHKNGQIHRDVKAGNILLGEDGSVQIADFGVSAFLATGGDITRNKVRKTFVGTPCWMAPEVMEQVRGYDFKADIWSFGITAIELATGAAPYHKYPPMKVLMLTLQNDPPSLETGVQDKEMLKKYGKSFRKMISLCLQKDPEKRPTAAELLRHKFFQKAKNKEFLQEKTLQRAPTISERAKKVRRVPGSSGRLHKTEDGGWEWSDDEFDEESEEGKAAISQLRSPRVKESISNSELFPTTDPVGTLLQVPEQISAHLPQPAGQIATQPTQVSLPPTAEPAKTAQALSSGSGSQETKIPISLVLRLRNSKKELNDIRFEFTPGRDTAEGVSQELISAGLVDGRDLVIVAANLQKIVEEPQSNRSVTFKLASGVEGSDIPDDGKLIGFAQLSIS
Description: as §1

[9] = biological target: PKD3(h) (Homo sapiens, UniProt O94806); assay: Kinase Profiler; format: biochemical
Description: as §2

[10] = biological target: Cholecystokinin CCK1 (CCKA) (Homo sapiens, UniProt P32238); assay: Safety screen; format: binding
Description: (§3) Blood cell counts, kinase profiler, safety screen, bacterial cytotoxicity, Ames, micronucleus assays were performed by the company Eurofins (France).

[11] = biological target: BMPR2(h) (Homo sapiens, UniProt Q13873); assay: Kinase Profiler; format: biochemical
Chain of BMPR2(h) (Q13873 27-1038): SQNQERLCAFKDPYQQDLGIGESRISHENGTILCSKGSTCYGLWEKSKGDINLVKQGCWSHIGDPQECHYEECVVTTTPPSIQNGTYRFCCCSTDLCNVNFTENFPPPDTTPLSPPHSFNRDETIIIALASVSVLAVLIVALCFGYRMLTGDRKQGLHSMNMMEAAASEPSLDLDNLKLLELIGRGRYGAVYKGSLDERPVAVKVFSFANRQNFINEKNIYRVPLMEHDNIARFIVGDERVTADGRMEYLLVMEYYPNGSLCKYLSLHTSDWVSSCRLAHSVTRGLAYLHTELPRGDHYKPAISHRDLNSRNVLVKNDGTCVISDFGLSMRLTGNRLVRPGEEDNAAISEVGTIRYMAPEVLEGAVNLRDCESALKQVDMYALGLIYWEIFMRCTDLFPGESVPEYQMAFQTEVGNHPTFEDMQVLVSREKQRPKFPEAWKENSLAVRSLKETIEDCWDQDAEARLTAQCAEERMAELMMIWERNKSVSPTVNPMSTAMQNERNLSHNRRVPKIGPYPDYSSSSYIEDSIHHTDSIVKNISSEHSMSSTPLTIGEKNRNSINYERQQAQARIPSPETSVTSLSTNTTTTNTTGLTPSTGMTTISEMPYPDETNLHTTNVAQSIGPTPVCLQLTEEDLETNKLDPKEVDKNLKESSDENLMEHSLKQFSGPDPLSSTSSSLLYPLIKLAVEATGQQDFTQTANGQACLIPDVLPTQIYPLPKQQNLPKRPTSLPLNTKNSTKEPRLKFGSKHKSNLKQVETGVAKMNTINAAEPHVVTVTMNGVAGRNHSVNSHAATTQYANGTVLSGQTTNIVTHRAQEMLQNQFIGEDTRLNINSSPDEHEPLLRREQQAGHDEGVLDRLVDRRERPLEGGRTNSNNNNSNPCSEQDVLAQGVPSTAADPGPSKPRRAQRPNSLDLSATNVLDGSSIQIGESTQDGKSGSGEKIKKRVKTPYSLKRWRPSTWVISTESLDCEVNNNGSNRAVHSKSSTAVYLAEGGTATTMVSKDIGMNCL
Description: as §1

[12] = biological target: ALK6(h) (Homo sapiens, UniProt O00238); assay: Kinase Profiler; format: biochemical
Description: as §2

[13] = biological target: TrkA(h) (Homo sapiens, UniProt P04629); assay: Kinase Profiler; format: biochemical
Description: as §2

[14] = tested on: Sodium Channel, Site 2; assay: Safety screen; format: binding, rat
Description: as §3

[15] = biological target: Fms(h) (Homo sapiens, UniProt P07333); assay: Kinase Profiler; format: biochemical
Description: as §2

[16] = tested on: RAC1-dependent membrane ruffle formation in NIH 3T3 cells; assay: EGF-induced membrane ruffle formation; format: cell-based; settings: EGF 10 ng/mL, inhibitors added 1 h prior; read-out: IC50, inhibition of ruffles formation
Description: Figure 2 Identification of a new RAC1 inhibitor (A) Effect of A41 and NSC23766 on ruffle formation (white arrows) induced by EGF (10 ng/mL) in NIH 3T3 cells in serum-free culture medium (CTL). Inhibitors were added at indicated concentration 1 h prior to EGF stimulation. To assess cytoskeleton organization, cells were incubated with Alexa Fluor 488 phalloidin to visualize F-actin. Results shown are representative of 3 independent experiments. Corresponding concentration-response curves have been established by counting the percentages of cells with ruffles (scale bars: 10 μm). (B) Immunoblot analysis and associated quantification of RAC-GTP level and total RAC expression in NIH 3T3 cells stimulated by EGF (10 ng/mL, 5 min) and pre-incubated or not (−) with NSC23766, A41, or A415 at 10^−5 M for 1 h (∗∗∗p < 0.001 vs. controls without EGF stimulation, ^###p < 0.001 vs. controls with EGF stimulation) (N > 3). […] (D) Representative in vitro nucleotide exchange catalyzed by the DH-PH of TIAM (10 nM) measured by the binding of fluorescent mant-GTP (1 μM) to RAC1 (0.5 μM, preloaded with GDP) in the presence of indicated concentrations of A41 (out of N = 6). […] (E) Kobs and Kmax were determined in each condition (N = 6). […]
After indicated treatments, cells were fixed with 4% paraformaldehyde and permeabilized in PBS 0.5% Triton X-100. […] Cancer cells were detected with firefly luciferase antibody (ab21176, Abcam) (dilution 1/500) overnight at room temperature, followed by secondary Alexa 488-labeled anti-rabbit antibody (dilution 1/1000). […] After staining, cells were mounted in Prolong gold antifade reagent with DAPI and images were captured by a fluorescence microscope. […]
Supp. […] For each molecule, druglikeness has been assessed according to Lipinski’s rules: molecular weight (MW)<500; high lipophilicity (LogP<5); less than 5 hydrogen bond donors (HBD); less than 10 hydrogen bond acceptors (HBA). The log P was calculated by using OSIRIS – Data Warrior software. […] IC50 was determined experimentally from the inhibition

[17] = biological target: c-RAF(h) (Homo sapiens, UniProt P04049); assay: Kinase Profiler; format: biochemical
Chain of c-RAF(h) (P04049 whole entry): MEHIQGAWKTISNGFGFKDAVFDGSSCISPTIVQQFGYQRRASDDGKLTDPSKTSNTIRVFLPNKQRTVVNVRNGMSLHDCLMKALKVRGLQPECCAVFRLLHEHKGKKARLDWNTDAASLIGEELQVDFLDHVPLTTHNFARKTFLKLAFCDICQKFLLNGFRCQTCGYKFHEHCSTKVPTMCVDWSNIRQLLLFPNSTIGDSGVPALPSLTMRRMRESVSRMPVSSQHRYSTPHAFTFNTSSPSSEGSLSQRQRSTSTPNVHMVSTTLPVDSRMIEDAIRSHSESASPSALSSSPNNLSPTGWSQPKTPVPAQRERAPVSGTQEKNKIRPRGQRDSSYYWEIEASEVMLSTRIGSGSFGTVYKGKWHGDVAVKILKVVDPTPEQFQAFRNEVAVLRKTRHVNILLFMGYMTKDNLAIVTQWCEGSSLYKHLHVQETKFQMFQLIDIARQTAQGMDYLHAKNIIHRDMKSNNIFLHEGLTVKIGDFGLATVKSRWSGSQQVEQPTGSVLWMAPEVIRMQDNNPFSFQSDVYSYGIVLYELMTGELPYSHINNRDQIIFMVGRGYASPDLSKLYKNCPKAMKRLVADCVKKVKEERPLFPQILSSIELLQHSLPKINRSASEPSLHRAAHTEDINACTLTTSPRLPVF
Description: as §2

[18] = biological target: LATS2(h) (Homo sapiens, UniProt Q9NRM7); assay: Kinase Profiler; format: biochemical
Description: as §2

In the case of `COc1ccc(OC)c(NS(=O)(=O)c2ccc(NC(=O)CCSc3ccc(C)cc3)cc2)c1` [Compound A41], the “Activity(%)” value [1] is reported as 88%, the “% inh.” value [2] is reported as 5% and the “Activity(%)” value [3] is reported as 108%. For the same compound, the “Activity(%)” value [4] was 109%, the “Activity(%)” value [5] was 111% and the “Activity(%)” value [6] was 102%. The “Activity(%)” value [7] was 99%, the “Activity(%)” value [8] was 103% and the “Activity(%)” value [9] was 104%. The “% inh.” value [10] was 31%, the “Activity(%)” value [11] was 100% and the “Activity(%)” value [12] was 104%. For the same compound, the “Activity(%)” value [13] was 99%, the “% inh.” value [14] was 57% and the “Activity(%)” value [15] was 112%. The IC50 [16] was 2.5 nM, the “Activity(%)” value [17] was 93% and the “Activity(%)” value [18] was 110%.
